Reference: US20250320205A1, “STAT6 DEGRADERS” (Gilead Sciences, Inc., priority 2024, published 2025)

Legend:
STAT6 = molecular target: T1, STAT6 (Homo sapiens, UniProt P42226); experiment: STAT6 Degrader Assay (HiBiT based, HeLa LgBiT clone 4.14 cells); assay type: cell-based; details: for DC50: geometric mean across assay runs and compound batches, DC50 provided for test compounds with >80% Emax, read-out: STAT6 degradation DC50; for Emax: HeLa, maximal STAT6 degradation
T1 construct: These cells express endogenous STAT6; host or cells: HeLa LgBiT clone 4.14 (CRISPR knock-in of HiBiT into the endogenous STAT6 gene)
T1 sequence (P42226 1-847): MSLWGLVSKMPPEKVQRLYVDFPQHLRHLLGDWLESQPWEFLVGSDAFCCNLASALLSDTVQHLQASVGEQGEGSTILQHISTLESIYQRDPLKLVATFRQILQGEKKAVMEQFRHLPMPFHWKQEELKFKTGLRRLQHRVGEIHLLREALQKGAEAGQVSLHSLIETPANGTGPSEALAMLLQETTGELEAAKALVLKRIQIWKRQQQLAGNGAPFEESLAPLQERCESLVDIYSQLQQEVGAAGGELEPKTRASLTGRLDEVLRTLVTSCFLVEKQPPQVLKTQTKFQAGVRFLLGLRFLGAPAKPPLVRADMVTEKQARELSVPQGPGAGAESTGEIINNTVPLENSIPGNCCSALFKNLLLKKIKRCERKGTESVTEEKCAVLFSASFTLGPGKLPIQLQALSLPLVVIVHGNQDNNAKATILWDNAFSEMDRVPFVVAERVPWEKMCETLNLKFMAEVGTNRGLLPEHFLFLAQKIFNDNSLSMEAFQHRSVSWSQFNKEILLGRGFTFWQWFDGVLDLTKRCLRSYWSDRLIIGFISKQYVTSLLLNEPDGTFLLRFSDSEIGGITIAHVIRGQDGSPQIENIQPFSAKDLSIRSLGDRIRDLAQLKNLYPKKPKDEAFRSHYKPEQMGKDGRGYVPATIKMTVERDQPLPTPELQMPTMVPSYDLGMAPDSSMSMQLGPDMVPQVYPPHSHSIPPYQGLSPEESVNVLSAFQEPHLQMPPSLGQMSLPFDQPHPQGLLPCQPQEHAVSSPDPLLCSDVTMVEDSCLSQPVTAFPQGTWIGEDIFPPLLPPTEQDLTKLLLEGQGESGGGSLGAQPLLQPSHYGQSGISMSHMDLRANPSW
How it was run: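 DC50 (nM) comes from NanoBiT luminescence of HiBiT-knock-in STAT6 in HeLa LgBiT clone 4.14 cells, treated 4-24 h at 37° C. Luminescence reflects non-degraded STAT6, with 50 μM terfenadine wells taken as full degradation.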

[1] = test system: Eotaxin-3 (CCL26) release; experiment: Human Whole Blood Eotaxin-3 Assay (IL-4 stimulated); assay type: cell-based; details: Homo sapiens; geometric mean across assay runs and compound batches; EC50 provided for test compounds with >80% Emax
Method: This was a human whole blood assay using recombinant human Interleukin 4 to stimulate the blood and measuring the ability of the test compounds to inhibit eotaxin-3 release. The biological activities of the test compounds have been tested in human whole blood stimulated with IL-4 measuring Eotaxin-3 release. The test compounds were added to 384 well clear flat-bottom plate in a 4-fold serial dilution in triplicates using a liquid handler. Human whole blood stabilized in lithium-heparin tubes was added in a volume of 65 μL per well, resulting in a final DMSO concentration of 0.5%. The plate is incubated for 2 h at 37° C. under 5% CO2/95% air. Subsequently, 5 μL of recombinant human IL-4 (R&D Systems, cat #204-ILB) was added to the wells to a final concentration of 400 pM. The plate was incubated for 48 h at 37° C. under 5% CO2/95% air. The plate was spun down for 10 minutes at 500×g and 20 μL supernatant was harvested and transferred to a 384 well v-bottom plate using a liquid handler and stored at −20° C. until further analysis. 10 μL supernatant was used to measure the level of Eotaxin-3 (CCL26) using Human Eotaxin-3 MSD kit from Mesocsale (Cat #K251UEK-4). The assay was performed according to the manufacture instructions.

CNc1ccn(-c2ccnc3c2cc(CN2CCC(c4c(F)cc(C(=O)N5CCn6nc(CN7CCC(c8ccc(N[C@@H]9CCC(=O)NC9=O)cc8F)CC7)cc6C5)cc4F)CC2)n3C)c(=O)c1 (single isomer, unassigned) [Example 2g102]
DC50 (STAT6): 1.5 nM | EC50 [1]: 0.8 nM

CNc1ccn(-c2ccnc3c2cc([C@H](C)N2CC=C(c4c(C)cc(C(=O)N5CCC(CN6CCN(c7ncc(N[C@H]8CCC(=O)NC8=O)cc7F)C[C@H]6C)CC5)cc4F)CC2)n3C)c(=O)c1 (single isomer, unassigned) [Example 2g114]
DC50 (STAT6): 5.8 nM | EC50 [1]: 6.5 nM

CNc1ccn(-c2ccnc3c2cc([C@H](C)N2CC=C(c4c(C)cc(C(=O)N5CCn6nc(CN7CCC(c8ccc(N[C@H]9CCC(=O)NC9=O)c(OC)c8)CC7)cc6C5)cc4F)CC2)n3C)c(=O)c1 (single isomer, unassigned) [Example 2g117]
DC50 (STAT6): 0.3 nM | EC50 [1]: 0.5 nM

CNc1ccn(-c2ccnc3c2cc([C@H](C)N2CC=C(c4c(C)cc(C(=O)N5CCn6nc(CN7CCC(c8ccc(N[C@@H]9CCC(=O)NC9=O)c(OC)c8)CC7)cc6C5)cc4F)CC2)n3C)c(=O)c1 (single isomer, unassigned) [Example 2g118]
DC50 (STAT6): 0.1 nM | EC50 [1]: 1.1 nM

CNc1cc(=O)n(-c2ccnc3c2cc([C@H](C)N2CC=C(c4c(F)cc(C(=O)N5CCC(CN6CCN(c7ccc(N[C@H]8CCC(=O)NC8=O)cc7F)CC6)CC5)cc4F)CC2)n3C)cc1F (single isomer, unassigned) [Example 2g120]
DC50 (STAT6): 9.4 nM | EC50 [1]: 36.5 nM

CNc1cc(=O)n(-c2ccnc3c2cc([C@H](C)N2CC=C(c4c(F)cc(C(=O)N5CCC(CN6CCN(c7ccc(N[C@@H]8CCC(=O)NC8=O)cc7F)CC6)CC5)cc4F)CC2)n3C)cc1F (single isomer, unassigned) [Example 2g121]
DC50 (STAT6): 9.6 nM | EC50 [1]: 30.9 nM

CNc1cc(=O)n(-c2ccnc3c2cc(CN2CCC(c4c(F)cc(C(=O)N5CCn6nc(CN7CCC(c8ccc(N[C@H]9CCC(=O)NC9=O)c(OC)c8)CC7)cc6C5)cc4F)CC2)n3C)cc1F (single isomer, unassigned) [Example 2g123]
DC50 (STAT6): 1.8 nM | EC50 [1]: 2.6 nM

CNc1cc(=O)n(-c2ccnc3c2cc(CN2CCC(c4c(F)cc(C(=O)N5CCn6nc(CN7CCC(c8ccc(N[C@@H]9CCC(=O)NC9=O)c(OC)c8)CC7)cc6C5)cc4F)CC2)n3C)cc1F (single isomer, unassigned) [Example 2g124]
DC50 (STAT6): 2.5 nM | EC50 [1]: 5.7 nM

CNc1ccn(-c2ccnc3c2cc([C@H](C)N2CC=C(c4c(C)cc(C(=O)N5CCC(CN6CCN(c7ccc(N[C@H]8CCC(=O)NC8=O)c(OC)c7)CC6)CC5)cc4F)CC2)n3C)c(=O)c1 (single isomer, unassigned) [Example 2g126]
DC50 (STAT6): 4.3 nM | EC50 [1]: 21.2 nM

CNc1ccn(-c2ccnc3c2cc([C@H](C)N2CC=C(c4c(C)cc(C(=O)N5CCC(CN6CCN(c7ccc(N[C@@H]8CCC(=O)NC8=O)c(OC)c7)CC6)CC5)cc4F)CC2)n3C)c(=O)c1 (single isomer, unassigned) [Example 2g127]
DC50 (STAT6): 20.8 nM | EC50 [1]: 9.3 nM

C[C@@H](c1cc2c(-n3ccc4c(c3=O)CCN4)ccnc2n1C)N1CCC(c2ccc(C(=O)N3CCC(CN4CCN(c5ccc(NC6CCC(=O)NC6=O)cc5F)CC4)CC3)cc2)CC1 (stereo partly drawn) [Example 2c29, 3-((3-fluoro-4-(4-((1-(4-(1-((S)-1-(1-methyl-4-(4-oxo-1,2,3,4-tetrahydro-5H-pyr-rolo[3,2-c]pyridin-5-yl)-1H-pyrrolo[2,3-b]pyridin-2-yl)-ethyl)piperidin-4-yl)benzoyl)-piperidin-4-yl)methyl)piper-azin-1-yl)phenyl)amino)piper-idine-2,6-dione]
Emax (STAT6): 70 to 80% | EC50 [1]: 15.7 nM

CNc1ccn(-c2ccnc3c2cc([C@H](C)N2CCC(c4ccc(C(=O)N5CCC(CN6CCN(c7ccc(NC8CCC(=O)NC8=O)cc7F)CC6)CC5)cc4)CC2)n3C)c(=O)c1 (stereo partly drawn) [Example 2c31, 3-((3-fluoro-4-(4-((1-(4-(1-((S)-1-(1-methyl-4-(4-(meth-ylamino)-2-oxopyridin-1(2H)-yl)-1H-pyrrolo[2,3-b]pyridin-2-yl)ethyl)piperidin-4-yl)-benzoyl)piperidin-4-yl)meth-yl)piperzin-1-yl)phenyl)-amino)-piperidine-2,6-dione]
Emax (STAT6): 70 to 80% | EC50 [1]: 22.5 nM

C[C@@H]1CN(c2ccc(NC3CCC(=O)NC3=O)cc2F)CCN1CC1CCN(C(=O)c2ccc(C3CCN([C@@H](C)c4cc5c(-n6ccc7c(c6=O)CCN7)ccnc5n4C)CC3)cc2)CC1 (stereo partly drawn) [Example 2f14, 3-((3-fluoro-4-((R)-3-methyl-4-((1-(4-(1-((S)-1-(1-methyl-4-(4-oxo-1,2,3,4-tetrahydro-5H-pyrrolo[3,2-c]pyridin-5-yl)-1H-pyrrolo[2,3-b]pyridin-2-yl)ethyl)piperidin-4-yl)-benzoyl)piperidin-4-yl)-meth-yl)piperazin-1-yl)phenyl)-amino)piperidine-2,6-dione]
DC50 (STAT6): 7.8 nM | EC50 [1]: 18.6 nM

CNc1cc(=O)n(-c2ccnc3c2cc([C@H](C)N2CC=C(c4c(C)cc(C(=O)N5CCn6nc(CN7CCC(c8ccc(NC9CCC(=O)NC9=O)cc8F)CC7)cc6C5)cc4F)CC2)n3C)cc1F (stereo partly drawn) [Example 2g4, 3-((3-fluoro-4-(1-((5-(3-fluoro-4-(1-((S)-1-(4-(5-fluoro-4-(methylamino)-2-oxopyridin-1(2H)-yl)-1-meth-yl-1H-pyrrolo[2,3-b]pyridin-2-yl)ethyl)-1,2,3,6-tetrahydro-pyridin-4-yl)-5-methylbenzo-yl)-4,5,6,7-tetrahydropyrazolo [1,5-a]pyrazin-2-yl)methyl)-piperidin-4-yl)phenyl)amino)-piperidine-2,6-dione]
DC50 (STAT6): 0.5 nM | EC50 [1]: 1.9 nM

CNc1cc(=O)n(-c2ccnc3c2cc([C@H](C)N2CC=C(c4c(C)cc(C(=O)N5CCn6nc(CC7(O)CCN(c8ccc(NC9CCC(=O)NC9=O)c(OC)c8)CC7)cc6C5)cc4F)CC2)n3C)cc1F (stereo partly drawn) [Example 2g7, 3-((4-(4-((5-(3-fluoro-4-(1-((S)-1-(4-(5-fluoro-4-(meth-ylamino)-2-oxopyridin-1(2H)-yl)-1-methyl-1H-pyrrolo[2,3-b]pyridin-2-yl)ethyl)-1,2,3,6-tetrahydropyridin-4-yl)-5-methylbenzoyl)-4,5,6,7-tetra-hydropyrazolo[1,5-a]pyrazin-2-yl)methyl)-4-hydroxy-piperidin-1-yl)-2-methoxy-phenyl)amino)-piperidine-2,6-dione]
DC50 (STAT6): 10.3 nM | EC50 [1]: 15.4 nM

CNc1ccn(-c2ccnc3c2cc([C@H](C)N2CC=C(c4c(C)cc(C(=O)N5CCC(CN6CCN(Cc7ccc(NC8CCC(=O)NC8=O)c(F)c7)CC6)CC5)cc4F)CC2)n3C)c(=O)c1 (stereo partly drawn) [Example 2g10, 3-((2-fluoro-4-((4-((1-(3-fluoro-5-methyl-4-(1-((S)-1-(1-methyl-4-(4-(methyl-amino)-2-oxopyridin-1(2H)-yl)-1H-pyrrolo[2,3-b]pyridin-2-yl)ethyl)-1,2,3,6-tetrahydro-pyridin-4-yl)benzoyl)-piper-idin-4-yl)methyl)piperazin-1-yl)methyl)phenyl)amino)-piperidine-2,6-dione]
DC50 (STAT6): 11.4 nM | EC50 [1]: 19.2 nM
